This note sets out measurements from patent US7531555B2, “Compositions and methods for selective inhibition of nicotine acetylcholine receptors” (University of Florida Research Foundation, Inc., priority 2003, dated 2009).

Molecules are shown by their SMILES. Where two headings read alike, the source gives them in different places.

What all share (type): cell-based
In one assay the target is T1, Rat α6β4β3 (Rattus norvegicus, UniProt P12391+P12392+P43143).
T1 construct: oocytes expressing the complete wild-type α6 subunits were tested; expressed in transfected cells; host or cells: Xenopus laevis oocytes injected with subunit cRNAs; clones from Dr. Jim Boulter (UCLA)
T1 sequence (P43143 31-493): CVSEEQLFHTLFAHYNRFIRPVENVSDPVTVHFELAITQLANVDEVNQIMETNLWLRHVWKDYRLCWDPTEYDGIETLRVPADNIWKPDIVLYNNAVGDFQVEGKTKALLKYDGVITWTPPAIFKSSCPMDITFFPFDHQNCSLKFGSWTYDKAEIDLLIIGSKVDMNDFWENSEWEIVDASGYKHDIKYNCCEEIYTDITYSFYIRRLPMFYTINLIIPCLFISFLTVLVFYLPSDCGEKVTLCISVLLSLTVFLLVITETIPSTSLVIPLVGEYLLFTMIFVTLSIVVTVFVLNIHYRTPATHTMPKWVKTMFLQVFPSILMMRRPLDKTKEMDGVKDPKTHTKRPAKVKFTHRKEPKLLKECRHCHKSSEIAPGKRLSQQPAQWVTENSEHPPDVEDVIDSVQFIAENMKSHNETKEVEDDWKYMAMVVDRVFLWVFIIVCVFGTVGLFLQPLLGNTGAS
T1 sequence (P12392 21-495): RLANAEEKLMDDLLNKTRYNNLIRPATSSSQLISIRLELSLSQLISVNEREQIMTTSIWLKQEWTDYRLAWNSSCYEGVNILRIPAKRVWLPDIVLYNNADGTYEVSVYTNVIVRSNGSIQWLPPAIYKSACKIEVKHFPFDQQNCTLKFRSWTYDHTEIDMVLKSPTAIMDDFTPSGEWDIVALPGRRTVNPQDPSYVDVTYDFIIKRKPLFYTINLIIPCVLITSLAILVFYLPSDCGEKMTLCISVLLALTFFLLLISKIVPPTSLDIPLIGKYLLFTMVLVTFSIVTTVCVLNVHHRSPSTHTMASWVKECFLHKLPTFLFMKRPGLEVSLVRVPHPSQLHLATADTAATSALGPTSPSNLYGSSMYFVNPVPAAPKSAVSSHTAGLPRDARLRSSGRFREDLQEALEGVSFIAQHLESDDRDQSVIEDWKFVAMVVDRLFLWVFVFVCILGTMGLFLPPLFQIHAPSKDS
T1 sequence (P12391 31-464): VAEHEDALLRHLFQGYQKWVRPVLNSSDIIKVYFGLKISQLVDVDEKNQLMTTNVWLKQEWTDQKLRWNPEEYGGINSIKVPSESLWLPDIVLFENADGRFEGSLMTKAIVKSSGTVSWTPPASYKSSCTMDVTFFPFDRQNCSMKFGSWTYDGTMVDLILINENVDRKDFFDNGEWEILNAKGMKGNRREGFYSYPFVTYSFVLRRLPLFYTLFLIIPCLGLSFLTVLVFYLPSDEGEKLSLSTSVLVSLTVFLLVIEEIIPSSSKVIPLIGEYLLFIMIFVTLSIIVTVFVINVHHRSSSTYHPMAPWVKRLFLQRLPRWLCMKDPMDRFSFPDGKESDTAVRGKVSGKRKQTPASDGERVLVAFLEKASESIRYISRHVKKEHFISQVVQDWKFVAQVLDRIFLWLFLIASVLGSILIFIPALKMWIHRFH
Briefly: Voltage clamp of Xenopus oocytes expressing α6β4β3 nAChR. As to the method:
(§1) Mature (>9 cm) female Xenopus laevis African frogs (NASCO, Ft. Atkinson, Wis.) were used as a source of oocytes. Prior to surgery, frogs were anesthetized by placing the animal in a 1.5 g/l solution of MS222 (3-aminobenzoic acid ethyl ester) for 30 minutes. Oocytes were removed from an incision made in the abdomen.
(§2) In order to remove the follicular cell layer, harvested oocytes were treated with 1.25 mg/ml collagenase from Worthington Biochemical Corporation (Freehold, N.J.) for 2 hours at room temperature in calcium-free Barth's solution (88 mM NaCl, 10 mM HEPES pH 7.6, 0.33 mM MgSO4, 0.1 mg/ml gentamicin sulfate). Subsequently, stage 5 oocytes were isolated and injected with 50 nl (5-20 ng) each of the appropriate subunit cRNAs. Recordings were made 2 to 15 days after injection.
(§3) Rat neuronal nAChR clones and mouse muscle nAChR cDNA clones were used. The wild-type clones were obtained from Dr. Jim Boulter (UCLA). The rat α6/3 (Dowell et al. J Neurosci, 2003, 23:8445-8452) clone was obtained from Michael McIntosh (University of Utah) and expressed in Xenopus oocytes in combinations with rat β2 and β3. […] The TM2 domain is understood to line the pore of the channel, with alpha helix structure. The 7′ position may actually be directed away from the actual pore lining, but this residue is highly conserved in all of the nAChR. It is valine in all of them except α9 (isoleucine) and β1, where it is alanine. The TM2 mutation in the α6/3 chimera was corrected by using QuickChange (Stratagene) according to their protocols. The corrected α6/3 chimera sequence was confirmed by restriction diagnostics and by automated fluorescent sequencing (University of Florida core facility). The corrected clone was expressed as above in Xenopus oocytes with β2 and β3 and compared to the wild-type α3 co-expressed with β2 and β3.
(§4) After linearization and purification of cloned cDNAs, RNA transcripts were prepared in vitro using the appropriate mMessage mMachine kit from Ambion Inc. (Austin, Tex.).
(§5) Electrophysiology. The majority of experiments were conducted using OpusXpress 6000A (Axon Instruments, Union City Calif.). OpusXpress is an integrated system that provides automated impalement and voltage clamp of up to eight oocytes in parallel. Cells were automatically perfused with bath solution, and agonist solutions were delivered from a 96-well plate. Both the voltage and current electrodes were filled with 3 M KCl. The agonist solutions were applied via disposable tips, which eliminated any possibility of cross-contamination. Drug applications alternated between ACh controls and experimental applications. Flow rates were set at 2 ml/min for experiments with α7 receptors and 4 ml/min for other subtypes. Cells were voltage-clamped at a holding potential of −60 mV. Data were collected at 50 Hz and filtered at 20 Hz. Agonist applications were 12 seconds in duration followed by 181-second washout periods for α7 receptors and 8 seconds with 241-second wash periods for other subtypes. For some experiments, particularly under conditions where residual inhibition precluded making repeated measurements from single cells (see below), manual oocyte recordings were made as previously described (Papke and Papke Br J of Pharmacol, 2002, 137:49-61). In brief, Warner Instruments (Hamden, Conn.) OC-725C oocyte amplifiers were used, and data were acquired with a minidigi or digidata 1200A with pClamp9 software (Axon Instruments). Sampling rates were between 10 and 20 Hz and the data were filtered at 6 Hz. […]

For assay [1], the target named is T2, Rat α3β4β3 (Rattus norvegicus, UniProt P04757+P12391+P12392). As to the kind of experiment: Voltage clamp of Xenopus oocytes expressing α3β4β3 nAChR. On the set-up: expressed in transfected cells; host or cells: Xenopus laevis oocytes injected with subunit cRNAs; clones from Dr. Jim Boulter (UCLA). As to the method: as §1, §2, §3, §4, §5
T2 sequence (P04757 26-499): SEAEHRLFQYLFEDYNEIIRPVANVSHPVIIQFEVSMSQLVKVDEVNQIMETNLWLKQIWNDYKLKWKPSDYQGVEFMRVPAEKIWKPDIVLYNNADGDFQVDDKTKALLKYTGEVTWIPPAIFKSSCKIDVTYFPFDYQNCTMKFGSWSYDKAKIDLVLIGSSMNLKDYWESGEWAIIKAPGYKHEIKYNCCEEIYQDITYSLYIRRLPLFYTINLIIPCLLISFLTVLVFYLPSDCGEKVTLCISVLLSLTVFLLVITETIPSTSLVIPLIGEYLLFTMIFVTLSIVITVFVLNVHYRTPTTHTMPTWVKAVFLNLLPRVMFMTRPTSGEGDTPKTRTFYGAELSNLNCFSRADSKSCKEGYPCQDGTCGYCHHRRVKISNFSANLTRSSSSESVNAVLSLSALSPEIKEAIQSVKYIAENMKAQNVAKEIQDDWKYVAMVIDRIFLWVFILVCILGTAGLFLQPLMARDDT
T2 sequence (P12392 21-495): as the sequence (P12392 21-495) above
T2 sequence (P12391 31-464): as the sequence (P12391 31-464) above
Assay [2] deals with T2, Rat α3β4β3. The description is as above. On the set-up: Rat neuronal nAChR clones and mouse muscle nAChR cDNA clones were used; The wild-type clones were obtained from Dr. Jim Boulter (UCLA). As to the method: as §1, §2
Rat neuronal nAChR clones and mouse muscle nAChR cDNA clones were used. The wild-type clones were obtained from Dr. Jim Boulter (UCLA). The rat α6/3 (Dowell et al. J Neurosci, 2003, 23:8445-8452) clone was obtained from Michael McIntosh (University of Utah) and expressed in Xenopus oocytes in combinations with rat β2 and β3. […] The TM2 domain is understood to line the pore of the channel, with alpha helix structure. […] The corrected clone was expressed as above in Xenopus oocytes with β2 and β3 and compared to the wild-type α3 co-expressed with β2 and β3. […]

Where [3] appears, read: decrease in net charge, 100 μM ACh co-applied with TMPH, read-out: IC50 (area).
[4] abbreviates: decrease in peak current amplitude, 100 μM ACh co-applied with TMPH, read-out: IC50 (peak).

As for `CCCCCCC(=O)OC1CC(C)(C)NC(C)(C)C1` [TMPH, 2,2,6,6-tetramethylpiperidin-4-yl heptanoate], the IC50 at Rat α6β4β3 (setting [3]) is 18.3 ± 4.9 µM; on Rat α6β4β3 (setting [4]) it was 11 ± 4.4 µM; at Rat α6β4β3 (inhibition still present after 5-minute wash, read-out: IC50 (recovery)), 1700 ± 420 µM; on Rat α3β4β3 [1] (setting [3]), 1.4 ± 0.2 µM; on Rat α3β4β3 [1] (setting [4]), 1.9 ± 0.2 µM; on Rat α3β4β3 [1] (inhibition still present after 5-minute wash, read-out: IC50 (recovery), 2 site model, site with 85% of the fit), 30 µM. Also, the IC50 at Rat α3β4β3 [2] (inhibition still present after 5-minute wash, read-out: IC50 (recovery), 2 site model, site with approximately 15% of the fit) turned out to be 1 µM. In addition, the results for the “IC50 net charge/IC50 peak” value on Rat α6β4β3 (ratio) and on Rat α3β4β3 [1] (ratio) were 1.7 and 0.74, respectively. Further, the “IC50 recovery/IC50 net charge” value on Rat α6β4β3 (ratio) was 93. Besides, the “IC50 recovery/IC50 net charge, 2-site model, second value” on Rat α3β4β3 [1] (ratio, recovery site of IC50 30 μM) worked out at 21. At Rat α3β4β3 [2] (ratio, recovery site of IC50 1.0 μM), the “IC50 recovery/IC50 net charge, 2-site model, first value” stood at 0.7.

In general, IC50 refers to the concentration that gives 50% inhibition.
